Several values for one entry are separate records, joined by “and”; a condition that tells them apart may be missing. Equal entries are not always repeated. Toxic doses and inconclusive results are not listed.
System: P388 leukemia ip, CD2F1 mice, survival T/C
Assay: NCI In Vivo Anticancer Drug Screen. Data for tumor model P388 Leukemia (intraperitoneal) in CD2F1 (CDF1) mice
Details: endpoint: median survival time, higher = longer survival
Outline: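 Mice carrying the transplanted tumor received test compound or vehicle. Survival was recorded in each group, and the value is the treated-group measurement divided by that of the vehicle-treated control group.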

[1] = dose: 100.0 mg/kg/injection, schedule: Q01DX009 (ip), vehicle: saline with Tween-80
[2] = dose: 200.0 mg/kg/injection, schedule: Q01DX009 (ip), vehicle: saline with Tween-80
[3] = dose: 400.0 mg/kg/injection, schedule: Q01DX009 (ip), vehicle: saline with Tween-80
[4] = dose: 100.0 mg/kg/injection, schedule: Q04DX003 (ip), vehicle: saline with Tween-80
[5] = dose: 200.0 mg/kg/injection, schedule: Q04DX003 (ip), vehicle: saline with Tween-80
[6] = dose: 12.5 mg/kg/injection, schedule: Q01DX005 (ip), vehicle: saline
[7] = dose: 25.0 mg/kg/injection, schedule: Q01DX005 (ip), vehicle: saline
[8] = dose: 50.0 mg/kg/injection, schedule: Q01DX005 (ip), vehicle: saline

With CC(=O)C(C)C(C)=O the T/C (dose: 6.25 mg/kg/injection, schedule: Q01DX009 (ip), vehicle: saline with Tween-80) was 97 % of control, the T/C (dose: 12.5 mg/kg/injection, schedule: Q01DX009 (ip), vehicle: saline with Tween-80) was 93 % of control and the T/C (dose: 25.0 mg/kg/injection, schedule: Q01DX009 (ip), vehicle: saline with Tween-80) was 100 % of control. For the same molecule, the T/C (dose: 50.0 mg/kg/injection, schedule: Q01DX009 (ip), vehicle: saline with Tween-80) was 107 % of control, the T/C [1] was 108 % of control and the T/C [2] was 103 % of control. For the same molecule, the T/C [3] was 110 % of control.

In the case of CCCCCCCCCCCC[S+](C)CCCCCCCC (centres undefined), the T/C (dose: 0.78 mg/kg/injection, schedule: Q01DX005 (ip), vehicle: saline with Tween-80) is reported as 111 % of control and 117 % of control, the T/C (dose: 1.56 mg/kg/injection, schedule: Q01DX005 (ip), vehicle: saline with Tween-80) is reported as 122 % of control and the T/C (dose: 3.13 mg/kg/injection, schedule: Q01DX005 (ip), vehicle: saline with Tween-80) is reported as 124 % of control.

For CC(C)C1CC2CCC3C(C)(C(=O)O)CCCC3(C)C2CC1CO (centres undefined), the T/C [4] was 100 % of control and the T/C [5] was 91 % of control.

With O=C(O)c1ccc(OCCOc2ccccc2)c(Cl)c1 the T/C (dose: 60.0 mg/kg/injection, schedule: Q01DX005 (ip), vehicle: saline with Tween-80) was 98 % of control, the T/C (dose: 120.0 mg/kg/injection, schedule: Q01DX005 (ip), vehicle: saline with Tween-80) was 95 % of control and the T/C (dose: 240.0 mg/kg/injection, schedule: Q01DX005 (ip), vehicle: saline with Tween-80) was 93 % of control.

c1ccc2cc(-c3nc4cccc5c4n3CCC5)ccc2c1 was tested, and the T/C [1] was 105 % of control, the T/C [2] was 95 % of control and the T/C [3] was 115 % of control.

Cc1ccc2[nH]c(=O)oc(=O)c2c1 was tested, and the T/C (dose: 25.0 mg/kg/injection, schedule: Q01DX009 (ip), vehicle: saline) was 105 % of control, the T/C (dose: 50.0 mg/kg/injection, schedule: Q01DX009 (ip), vehicle: saline) was 107 % of control and the T/C (dose: 50.0 mg/kg/injection, schedule: Q04DX003 (ip), vehicle: saline with Tween-80) was 100 % of control. For the same molecule, the T/C (dose: 100.0 mg/kg/injection, schedule: Q01DX009 (ip), vehicle: saline) was 96 % of control, the T/C [4] was 108 % of control and the T/C (dose: 200.0 mg/kg/injection, schedule: Q01DX009 (ip), vehicle: saline) was 110 % of control. The T/C [5] was 108 % of control.

With CC(=O)NC(C=O)C(OC(C)C(=O)NC(C)C(=O)NC(CCC(N)=O)C(=O)O)C(OC1OC(CO)C(O)C(O)C1NC(C)=O)C(O)CO (centres undefined) the T/C (dose: 6.25 mg/kg/injection, schedule: Q01DX005 (ip), vehicle: saline) was 111 % of control, the T/C [6] was 112 % of control and the T/C [7] was 112 % of control. For the same molecule, the T/C [8] was 116 % of control.

For COc1ccc(CC2C(=O)OC(=O)C2Cc2ccc(OC)c(OC)c2)cc1OC (centres undefined), the T/C [4] was 100 % of control, the T/C [5] was 90 % of control and the T/C (dose: 400.0 mg/kg/injection, schedule: Q04DX003 (ip), vehicle: saline with Tween-80) was 100 % of control.

For CC1(C)OC2C(COC(=O)c3ccccc3)OC(n3cnc4c(=NC(=O)c5ccccc5)n(C(=O)c5ccccc5)cnc43)C2O1 (centres undefined), the T/C (dose: 50.0 mg/kg/injection, schedule: Q01DX005 (ip), vehicle: Klucel (hydroxypropylcellulose) (HPC)) was 94 % of control and the T/C (dose: 100.0 mg/kg/injection, schedule: Q01DX005 (ip), vehicle: Klucel (hydroxypropylcellulose) (HPC)) was 94 % of control.

OC(CC1CC2(CCN1)OCCO2)c1ccccc1 (centres undefined) was tested, and the T/C [6] was 105 % of control, the T/C [7] was 105 % of control and the T/C [8] was 108 % of control.

With CC(=O)OCc1cc(=O)n(C)c2c3c4c(cc12)c(C)cc(=O)n4CO3 the T/C (dose: 12.5 mg/kg/injection, schedule: Q01DX009 (ip), vehicle: Klucel (hydroxypropylcellulose) (HPC)) was 123 % of control, the T/C (dose: 25.0 mg/kg/injection, schedule: Q03HX015 (ip), vehicle: Klucel (hydroxypropylcellulose) (HPC)) was 173 % of control and the T/C (dose: 25.0 mg/kg/injection, schedule: Q04DX002 (ip), vehicle: Klucel (hydroxypropylcellulose) (HPC)) was 121 % of control. For the same molecule, the T/C (dose: 25.0 mg/kg/injection, schedule: Q06HX010 (ip), vehicle: Klucel (hydroxypropylcellulose) (HPC)) was 152 % of control, the T/C (dose: 50.0 mg/kg/injection, schedule: Q01DX001 (ip), vehicle: Klucel (hydroxypropylcellulose) (HPC)) was 119 % of control and 124 % of control and the T/C (dose: 50.0 mg/kg/injection, schedule: Q01DX009 (ip), vehicle: Klucel (hydroxypropylcellulose) (HPC)) was 157 % of control. For the same molecule, the T/C (dose: 50.0 mg/kg/injection, schedule: Q06HX010 (ip), vehicle: Klucel (hydroxypropylcellulose) (HPC)) was 105 % of control, the T/C (dose: 100.0 mg/kg/injection, schedule: Q01DX009 (ip), vehicle: Klucel (hydroxypropylcellulose) (HPC)) was 86 % of control and the T/C (dose: 200.0 mg/kg/injection, schedule: Q01DX001 (ip), vehicle: Klucel (hydroxypropylcellulose) (HPC)) was 155 % of control. For the same molecule, the T/C (dose: 200.0 mg/kg/injection, schedule: Q04DX002 (ip), vehicle: Klucel (hydroxypropylcellulose) (HPC)) was 168 % of control, the T/C (dose: 400.0 mg/kg/injection, schedule: Q01DX001 (ip), vehicle: Klucel (hydroxypropylcellulose) (HPC)) was 157 % of control and 176 % of control and the T/C (dose: 800.0 mg/kg/injection, schedule: Q01DX001 (ip), vehicle: Klucel (hydroxypropylcellulose) (HPC)) was 168 % of control.

Source: PubChem BioAssay AID330 (DTP/NCI, 2004)
